Key:
Bmi-1 protein = experiment: Sandwich ELISA Assay (Bmi-1 protein level in HT-1080 cells); format: cell-based
How it was run: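 HT-1080 cells were treated with compounds (0.5% DMSO final) for 40-48 h at 37 °C. Lysates were assayed by sandwich ELISA: mouse anti-Bmi-1 capture, rabbit anti-Bmi-1 and HRP anti-rabbit detection, TMB read at OD450 (OD570 reference). Levels were quantified against a recombinant GST-Bmi-1 standard curve (125-8000 pg/mL).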

Structure (SMILES) | EC50 (Bmi-1 protein) [nM] | melting point [°C]
Cc1nc2ccc(F)cn2c1-c1cc(N)nc(Nc2ccc(OC(F)F)cc2)n1 [Cpd 2, N^2-[4-(difluoromethoxy)phenyl]-6-(6-fluoro-2-methylimidazo[1,2-a]pyridin-3-yl)pyrimidine-2,4-diamine] | 1 to 10 | 189 to 190
Cc1nc2ccc(F)cc2n1-c1cc(N)nc(Nc2ccc(OC(F)F)cc2)n1 [Cpd 5, N^2-[4-(difluoromethoxy)phenyl]-6-(6-fluoro-2-methyl-1H-benzimidazol-1-yl)pyrimidine-2,4-diamine] | 10 to 100 | 141 to 143
CCc1nc2ccc(F)cc2n1-c1cc(N)nc(Nc2ccc(OC(F)F)c(F)c2)n1 [Cpd 11, N^2-[4-(difluoromethoxy)-3-fluorophenyl]-6-(2-ethyl-6-fluoro-1H-benzimidazol-1-yl)pyrimidine-2,4-diamine] | 10 to 100 | 159 to 161
Nc1cc(-n2c(C3CC3)nc3ccc(F)cc32)nc(Nc2ccc(OC(F)F)c(F)c2)n1 [Cpd 12, 6-(2-cyclopropyl-6-fluoro-1H-benzimidazol-1-yl)-N^2-[4-(difluoromethoxy)-3-fluorophenyl]pyrimidine-2,4-diamine] | 10 to 100 | 185 to 186
Nc1cc(-n2c(C(F)F)nc3ccc(F)cc32)nc(Nc2ccc(C(F)(F)F)cc2)n1 [Cpd 33, 6-[2-(difluoromethyl)-6-fluoro-1H-benzimidazol-1-yl]-N^2-[4-(trifluoromethyl)phenyl]pyrimidine-2,4-diamine] | 10 to 100 | 201 to 203
Nc1cc(-c2c(C(F)F)nc3ccc(F)cn23)nc(Nc2ccc(C(F)(F)F)cc2)n1 [Cpd 63, 6-[2-(difluoromethyl)-6-fluoroimidazo[1,2-a]pyridin-3-yl]-N^2-[4-(trifluoromethyl)phenyl]pyrimidine-2,4-diamine] | 100 to 3000 | 242 to 245
Nc1cc(-n2c(C3CC3)nc3ccc(F)cc32)nc(Nc2ccc(OC(F)F)cc2)n1 [Cpd 70, 6-(2-cyclopropyl-6-fluoro-1H-benzimidazol-1-yl)-N^2-[4-(difluoromethoxy)phenyl]pyrimidine-2,4-diamine] | 10 to 100 | 177 to 179
CCc1nc2ccc(F)cc2n1-c1cc(N)nc(Nc2ccc(OC(F)F)cc2)n1 [Cpd 71, N^2-[4-(difluoromethoxy)phenyl]-6-(2-ethyl-6-fluoro-1H-benzimidazol-1-yl)pyrimidine-2,4-diamine] | 10 to 100 | 171 to 173
COCc1nc2ccccc2n1-c1cc(N)nc(Nc2ccc(C(F)(F)F)cc2)n1 [Cpd 73, 6-[2-(methoxymethyl)-1H-benzimidazol-1-yl]-N^2-[4-(trifluoromethyl)phenyl]pyrimidine-2,4-diamine] | 100 to 3000 | 209 to 211
CC(C)c1nc2ccccc2n1-c1cc(N)nc(Nc2ccc(C(F)(F)F)cc2)n1 [Cpd 74, 6-[2-(propan-2-yl)-1H-benzimidazol-1-yl]-N^2-[4-(trifluoromethyl)phenyl]pyrimidine-2,4-diamine] | 100 to 3000 | 168 to 171
COCc1nc2ccc(F)cc2n1-c1cc(N)nc(Nc2ccc(OC(F)F)cc2)n1 [Cpd 78, N^2-[4-(difluoromethoxy)phenyl]-6-[6-fluoro-2-(methoxymethyl)-1H-benzimidazol-1-yl]pyrimidine-2,4-diamine] | 10 to 100 | 120 to 122
Cc1nc2ccccc2n1-c1cc(N)nc(Nc2ccc3c(c2)OC(F)(F)O3)n1 [Cpd 147, N^2-(2,2-difluoro-1,3-benzodioxol-5-yl)-6-(2-methyl-1H-benzimidazol-1-yl)pyrimidine-2,4-diamine] | 100 to 3000 | –
COc1ccc(Nc2nc(N)cc(-n3c(C)nc4ccccc43)n2)cc1Cl [Cpd 149, N^2-(3-chloro-4-methoxyphenyl)-6-(2-methyl-1H-benzimidazol-1-yl)pyrimidine-2,4-diamine] | 1 to 10 | –
CCc1nc2ccccc2n1-c1cc(N)nc(Nc2ccc(C)cc2)n1 [Cpd 153, 6-(2-ethyl-1H-benzimidazol-1-yl)-N^2-(4-methylphenyl)pyrimidine-2,4-diamine] | 1 to 10 | –
CCc1nc2ccc(F)cc2n1-c1cc(N)nc(Nc2cccc(Cl)c2)n1 [Cpd 164, N^2-(3-chlorophenyl)-6-(2-ethyl-6-fluoro-1H-benzimidazol-1-yl)pyrimidine-2,4-diamine] | 100 to 3000 | –
COc1ccc(Nc2nc(N)cc(-c3c(C)nc4ccc(F)cn34)n2)cc1 [Cpd 170, 6-(6-fluoro-2-methylimidazo[1,2-a]pyridin-3-yl)-N^2-(4-methoxyphenyl)pyrimidine-2,4-diamine] | 1 to 10 | –
Cc1ccc(Nc2nc(N)cc(-c3c(C)nc4ccc(F)cn34)n2)cc1 [Cpd 171, 6-(6-fluoro-2-methylimidazo[1,2-a]pyridin-3-yl)-N^2-(4-methylphenyl)pyrimidine-2,4-diamine] | 1 to 10 | –
Cc1cccc(Nc2nc(N)cc(-c3c(C)nc4ccc(F)cn34)n2)c1 [Cpd 173, 6-(6-fluoro-2-methylimidazo[1,2-a]pyridin-3-yl)-N^2-(3-methylphenyl)pyrimidine-2,4-diamine] | 100 to 3000 | –
Cc1nc2ccc(F)cc2n1-c1cc(N)nc(Nc2ccc(Cl)c(F)c2)n1 [Cpd 174, N^2-(4-chloro-3-fluorophenyl)-6-(6-fluoro-2-methyl-1H-benzimidazol-1-yl)pyrimidine-2,4-diamine] | 10 to 100 | –

Structure (SMILES) | EC50 (Bmi-1 protein) [nM] | melting point [°C]
COc1ccc(Nc2nc(N)c(F)c(-n3c(C)nc4ccccc43)n2)cc1 [Cpd 176, 5-fluoro-N^2-(4-methoxyphenyl)-6-(2-methyl-1H-benzimidazol-1-yl)pyrimidine-2,4-diamine] | 10 to 100 | –
Cc1nc2ccccc2n1-c1cc(N)nc(Nc2ccc(Cl)cc2)n1 [Cpd 177, N^2-(4-chlorophenyl)-6-(2-methyl-1H-benzimidazol-1-yl)pyrimidine-2,4-diamine] | 10 to 100 | –
Cc1ccc(Nc2nc(N)c(F)c(-n3c(C)nc4ccccc43)n2)cc1 [Cpd 178, 5-fluoro-6-(2-methyl-1H-benzimidazol-1-yl)-N^2-(4-methylphenyl)pyrimidine-2,4-diamine] | 1 to 10 | –
Cc1nc2ccccc2n1-c1cc(N)nc(Nc2ccc(Cl)c(F)c2)n1 [Cpd 179, N^2-(4-chloro-3-fluorophenyl)-6-(2-methyl-1H-benzimidazol-1-yl)pyrimidine-2,4-diamine] | 10 to 100 | –
COc1ccc(Nc2nc(N)cc(-n3c(C)nc4cc(F)c(F)cc43)n2)cc1 [Cpd 180, 6-(5,6-difluoro-2-methyl-1H-benzimidazol-1-yl)-N^2-(4-methoxyphenyl)pyrimidine-2,4-diamine] | 1 to 10 | –
Cc1ccc(Nc2nc(N)cc(-n3c(C)nc4cc(F)c(F)cc43)n2)cc1 [Cpd 181, 6-(5,6-difluoro-2-methyl-1H-benzimidazol-1-yl)-N^2-(4-methylphenyl)pyrimidine-2,4-diamine] | 1 to 10 | –
Cc1nc2cc(F)c(F)cc2n1-c1cc(N)nc(Nc2ccc(Cl)cc2)n1 [Cpd 182, N^2-(4-chlorophenyl)-6-(5,6-difluoro-2-methyl-1H-benzimidazol-1-yl)pyrimidine-2,4-diamine] | 10 to 100 | –
Cc1ccc(Nc2nc(N)cc(-n3c(C)nc4cc(C)c(C)cc43)n2)cc1 [Cpd 183, N^2-(4-methylphenyl)-6-(2,5,6-trimethyl-1H-benzimidazol-1-yl)pyrimidine-2,4-diamine] | 10 to 100 | –
Cc1ccc(Nc2nc(N)cc(-c3c(C)noc3C)n2)cc1 [Cpd 190, 6-(3,5-dimethyl-1,2-oxazol-4-yl)-N^2-(4-methylphenyl)pyrimidine-2,4-diamine] | 100 to 3000 | –
Cc1nc2cc(F)ccc2n1-c1cc(N)nc(Nc2ccc(Cl)cc2)n1 [Cpd 191, N^2-(4-chlorophenyl)-6-(5-fluoro-2-methyl-1H-benzimidazol-1-yl)pyrimidine-2,4-diamine] | 100 to 3000 | –
Cc1nc2cc(F)ccc2n1-c1cc(N)nc(Nc2ccc(Cl)c(F)c2)n1 [Cpd 192, N^2-(4-chloro-3-fluorophenyl)-6-(5-fluoro-2-methyl-1H-benzimidazol-1-yl)pyrimidine-2,4-diamine] | 100 to 3000 | –
Cc1nc2cc(F)c(F)cc2n1-c1cc(N)nc(Nc2cccc(Cl)c2)n1 [Cpd 193, N^2-(3-chlorophenyl)-6-(5,6-difluoro-2-methyl-1H-benzimidazol-1-yl)pyrimidine-2,4-diamine] | 100 to 3000 | –
Cc1nc2cc(F)c(F)cc2n1-c1cc(N)nc(Nc2ccc([N+](=O)[O-])cc2)n1 [Cpd 194, 6-(5,6-difluoro-2-methyl-1H-benzimidazol-1-yl)-N^2-(4-nitrophenyl)pyrimidine-2,4-diamine] | 100 to 3000 | –
Cc1cccc(Nc2nc(N)cc(-n3c(C)nc4cc(F)c(F)cc43)n2)c1 [Cpd 195, 6-(5,6-difluoro-2-methyl-1H-benzimidazol-1-yl)-N^2-(3-methylphenyl)pyrimidine-2,4-diamine] | 100 to 3000 | –
COc1cccc(Nc2nc(N)cc(-n3c(C)nc4cc(F)c(F)cc43)n2)c1 [Cpd 196, 6-(5,6-difluoro-2-methyl-1H-benzimidazol-1-yl)-N^2-(3-methoxyphenyl)pyrimidine-2,4-diamine] | 100 to 3000 | –
COc1ccc(Nc2nc(N)c(Cl)c(-n3c(C)nc4ccccc43)n2)cc1 [Cpd 197, 5-chloro-N^2-(4-methoxyphenyl)-6-(2-methyl-1H-benzimidazol-1-yl)pyrimidine-2,4-diamine] | 100 to 3000 | –
Cc1noc(C)c1-c1cc(N)nc(Nc2ccc(Cl)cc2)n1 [Cpd 198, N^2-(4-chlorophenyl)-6-(3,5-dimethylisoxazol-4-yl)pyrimidine-2,4-diamine] | 100 to 3000 | –
Cc1nc2cc(F)ccc2n1-c1cc(N)[n+]([O-])c(Nc2ccc(C(F)(F)F)cc2)n1 [Cpd 199, 6-(5-fluoro-2-methyl-1H-benzimidazol-1-yl)-N^2-[4-(trifluoromethyl)phenyl]pyrimidine-2,4-diamine 3-oxide] | 100 to 3000 | –
